# Assay results from patent publication US20220389477A1, “METHOD FOR EVALUATING ANTIBIOTIC SUSCEPTIBILITY” (Vrije Universiteit Brussel, priority 2019, published 2022).
# Where two headings read alike, the source gives them in different places.
# System: Klebsiella pneumonia culture
# Experiment: Optical third-derivative MIC method, culture in broth
# Assay type: cell-based
# Conditions: for HR? at MIC (25%) / HR? at MIC (40%) / HR? at MIC (60%) / HR? at MIC (75%): ratio MIC T2/T1; for MIC: Klebsiella pneumoniae
# Description: The method of FIG. 1 starts at a time equal to zero, t0 (1). Preferably, said t0 is the moment a pure bacteria culture is finished being prepared. Alternatively, said t0 is the moment all wells contain both said bacteria culture and said antimicrobial drug. After the starting of the experiment each well is periodically illuminated with a light source and the intensity of the transmitted light is detected with a photodetector (2). Preferably, each well is illuminated and the intensity of the transmitted light is detected every hour (2). More preferably, each well is illuminated and the intensity of the transmitted light is detected every 5 to 15 min. After a predetermined time length, preferably after 4 hours, a first, a second and a third derivative of said measured intensity is calculated (3) in a first and a second time frame for each well. Preferably, said second time frame is the last measured time frame after the test has been running for said predetermined time length, and said first time frame is the time frame preceding the second time frame. More preferably, said first time frame is between two and three hours and said second time frame is between three and four hours. After the calculation of said derivatives, said first derivative in said second time frame of said reference well is compared to a growth speed threshold value (4). Preferably, said growth speed threshold value is 0.166 (4). If said first derivative in said second time frame of said reference well is larger than or equal to said growth speed threshold value said bacteria culture is classified as Type I (4). If said first derivative in said second time frame of said reference well is smaller than said growth speed threshold value said bacteria culture is classified as Type II (4). Subsequently, independent of the classification of the bacteria culture according to the two types, the method comprises the following steps which are performed for each well or for all wells except said reference well. Both said first and said second time frames are evaluated to see if there is an inflection point present in the second derivative in said first and/or said second time frame (5).
# If said first and/or said second time frame comprise said inflection point than said third derivative in said first time frame is compared to said third derivative in said second time frame (6). If said third derivative in said first time frame is larger than said third derivative in said second time frame, then said first time frame and said second time frame are selected as a first and second time frame to be used in a minimal inhibitory concentration determination method (10). If said third derivative in said first time frame is not larger than said third derivative in said second time frame, then said well is illuminated again after a certain time period, preferably an hour, more preferably 5 to 15 min after said predetermined time length said, with a light source and the intensity of the transmitted light is detected with a photodetector forming a new time frame subsequent to said second time frame (7). A third derivative, and possibly also a first and/or a second derivative, is calculated in said new time frame (7). Further, in step (7) a new first time frame is put equal to said second time frame and a new second time frame to equal to said new time frame. Subsequently, said third derivative in said new first time frame is compared to said third derivative in said new second time frame (8). If said derivative in said new first time frame is larger than said third derivative in said new second time frame, then said new first time frame and said new second time frame are selected as a first and second time frame to be used in a minimal inhibitory concentration determination method (10). […]
compound,measurement,setting,value
C[C@@H](O)[C@H]1C(=O)N2C(C(=O)O)=C(SCCN=CN)C[C@H]12 [imipenem],HR? at MIC (25%),"KP/38.3002, Table 5",no (If the ratio of the MIC value in the second time frame over the MIC value in the first time frame is lower than or equal to 4 then the ratio is labelled not to be heteroresistant)
same,HR? at MIC (40%),"KP/38.3002, Table 5",yes (If the ratio of the MIC value in the second time frame over the MIC value in the first time frame is higher than or equal to 8 then the ratio is labelled to be heteroresistant)
same,HR? at MIC (60%),"KP/38.3002, Table 5",yes (If the ratio of the MIC value in the second time frame over the MIC value in the first time frame is higher than or equal to 8 then the ratio is labelled to be heteroresistant)
same,HR? at MIC (75%),"KP/38.3002, Table 5",yes (If the ratio of the MIC value in the second time frame over the MIC value in the first time frame is higher than or equal to 8 then the ratio is labelled to be heteroresistant)
same,HR? at MIC (25%),"KP/38.3002, Table 10",yes (If the ratio of the MIC value in the second time frame over the MIC value in the first time frame is higher than or equal to 8 then the ratio is labelled to be heteroresistant)
same,HR? at MIC (40%),"KP/38.3002, Table 10",yes (If the ratio of the MIC value in the second time frame over the MIC value in the first time frame is higher than or equal to 8 then the ratio is labelled to be heteroresistant)
same,HR? at MIC (60%),"KP/38.3002, Table 10",yes (If the ratio of the MIC value in the second time frame over the MIC value in the first time frame is higher than or equal to 8 then the ratio is labelled to be heteroresistant)
same,HR? at MIC (75%),"KP/38.3002, Table 10",yes (If the ratio of the MIC value in the second time frame over the MIC value in the first time frame is higher than or equal to 8 then the ratio is labelled to be heteroresistant)
same,HR? at MIC (40%),"KP/38.3002, Table 11",yes (If the ratio of the MIC value in the second time frame over the MIC value in the first time frame is higher than or equal to 8 then the ratio is labelled to be heteroresistant)
same,HR? at MIC (60%),"KP/38.3002, Table 11",yes (If the ratio of the MIC value in the second time frame over the MIC value in the first time frame is higher than or equal to 8 then the ratio is labelled to be heteroresistant)
same,HR? at MIC (75%),"KP/38.3002, Table 11",yes (If the ratio of the MIC value in the second time frame over the MIC value in the first time frame is higher than or equal to 8 then the ratio is labelled to be heteroresistant)
same,HR? at MIC (25%),KP/153.4346,no (If the ratio of the MIC value in the second time frame over the MIC value in the first time frame is lower than or equal to 4 then the ratio is labelled not to be heteroresistant)
same,HR? at MIC (40%),KP/153.4346,no (If the ratio of the MIC value in the second time frame over the MIC value in the first time frame is lower than or equal to 4 then the ratio is labelled not to be heteroresistant)
same,HR? at MIC (60%),KP/153.4346,yes (If the ratio of the MIC value in the second time frame over the MIC value in the first time frame is higher than or equal to 8 then the ratio is labelled to be heteroresistant)
same,HR? at MIC (75%),KP/153.4346,yes (If the ratio of the MIC value in the second time frame over the MIC value in the first time frame is higher than or equal to 8 then the ratio is labelled to be heteroresistant)
same,MIC,"3 h, KP/38.3002, FIG. 5C, Table 5, 3 h-4 h, read-out: MIC (25%) T1",16 µg/mL
same,MIC,"3 h, KP/38.3002, FIG. 5C, Table 5, 3 h-4 h, read-out: MIC (40%) T1",0.25 µg/mL
same,MIC,"3 h, KP/38.3002, FIG. 5C, Table 5, 3 h-4 h, read-out: MIC (60%) T1",0.25 µg/mL
same,MIC,"3 h, KP/38.3002, FIG. 5C, Table 5, 3 h-4 h, read-out: MIC (75%) T1",0.25 µg/mL
same,MIC,"3 h, KP/153.4346, 3 h-4 h, read-out: MIC (25%) T1",> 256 µg/mL
same,MIC,"3 h, KP/153.4346, 3 h-4 h, read-out: MIC (40%) T1",> 256 µg/mL
same,MIC,"3 h, KP/153.4346, 3 h-4 h, read-out: MIC (60%) T1",0.5 µg/mL
same,MIC,"3 h, KP/153.4346, 3 h-4 h, read-out: MIC (75%) T1",0.5 µg/mL
same,MIC,"3 h, MP/072.3489, 3 h-4 h, read-out: MIC (25%) T1",0.5 µg/mL
same,MIC,"3 h, MP/072.3489, 3 h-4 h, read-out: MIC (40%) T1",0.5 µg/mL
same,MIC,"3 h, MP/072.3489, 3 h-4 h, read-out: MIC (60%) T1",0.35 µg/mL
same,MIC,"3 h, MP/072.3489, 3 h-4 h, read-out: MIC (75%) T1",< 0.125 µg/mL
same,MIC,"4 h, KP/38.3002, FIG. 5C, Table 5, 4 h-5 h, read-out: MIC (25%) T2",16 µg/mL
same,MIC,"4 h, KP/38.3002, FIG. 5C, Table 5, 4 h-5 h, read-out: MIC (40%) T2",8 µg/mL
same,MIC,"4 h, KP/38.3002, FIG. 5C, Table 5, 4 h-5 h, read-out: MIC (60%) T2",8 µg/mL
same,MIC,"4 h, KP/38.3002, FIG. 5C, Table 5, 4 h-5 h, read-out: MIC (75%) T2",8 µg/mL
same,MIC,"4 h, KP/153.4346, 4 h-5 h, read-out: MIC (25%) T2",> 256 µg/mL
same,MIC,"4 h, KP/153.4346, 4 h-5 h, read-out: MIC (40%) T2",> 256 µg/mL
same,MIC,"4 h, KP/153.4346, 4 h-5 h, read-out: MIC (60%) T2",16 µg/mL
same,MIC,"4 h, KP/153.4346, 4 h-5 h, read-out: MIC (75%) T2",16 µg/mL
same,MIC,"4 h, MP/072.3489, 4 h-5 h, read-out: MIC (25%) T2",16 µg/mL
same,MIC,"4 h, MP/072.3489, 4 h-5 h, read-out: MIC (40%) T2",8 µg/mL
same,MIC,"4 h, MP/072.3489, 4 h-5 h, read-out: MIC (60%) T2",8 µg/mL
same,MIC,"4 h, MP/072.3489, 4 h-5 h, read-out: MIC (75%) T2",8 µg/mL
same,MIC,"5 h, KP/38.3002, FIG. 5H, both repetitions, read-out: MIC value determined by the method",16 µg/mL
same,MIC,"KP/38.3002, FIG. 5C, overall conclusion, read-out: MIC value determined by the method",16 µg/mL
same,MIC,"KP/38.3002, FIG. 5H repetition, Table 10, 3 h-4 h, read-out: MIC (25%) T1",0.5 µg/mL
